In experiment [1] the test system is HT29 cells. The experiment is described as follows: cells. The note with it: Homo sapiens, HT-29, Table 26, read-out: % inhibition of the growth of HT29 cells. The class given is cell-based. The text has this: N-phthalimidoglutarimide (thalidomide) is a molecule that has a great variety of properties, such as a teratogenic effect, reduction of the production of TNF-α by the monocytes and suppression of angiogenesis. It has been shown that the teratogenic activity depends on the glutarimide residue, while the antiangiogenic effect depends on the phthaloyl group. We therefore prepared peptide SEQ ID NO: 46 derived from peptide SEQ ID NO: 26 (HBP3)2 and added glycyl phthaloyl in N-terminal. The technique used to test the activity of phthaloyl-HBP3 is the same as the one previously described for aspirin. The results of the inhibition of the growth (%) of HT29 cells shown in Table 27 are calculated as a percentage of the mean optical density in the wells of cells containing dilutions of the samples being tested and the mean optical density of the wells of cells that received only medium.

Experiment [2] deals with CHO cells. The experiment is described as follows: In vitro transfection with luciferase plasmid using peptides. The class given is cell-based, Chinese hamster. As to conditions: for luciferase expression RLU: 3 μg of plasmid PCMV-LUC and 3.3 nmoles of peptide. The method, then:
The plasmid used is PCMV-LUC (6.4 kb) carrying the luciferase gene under the control of the promoter of the human cytomegalovirus.
The plasmid-peptide complexes are prepared by adding 3 μg of plasmid to 50 μl of NaCl, 0.15 M and 3.3 nmoles of SEQ ID NO: 22 and 23 for 15 minutes. The complexes are prepared in triplicate.
CHO cells are cultivated in the complete medium MEM Alpha containing 6% fetal calf serum and sown with 5×10^4 cells per well on a 24-well plate the evening before the experiment. The wells are then emptied of the medium, and the plasmid-peptide complex is added to them (3 μg of plasmid and 3.3 nmoles of peptide in 0.5 ml of complete medium for 5 hours at 37° C.). The medium is then replaced with the complete medium, and the culture is continued for 18-20 hours. The cells are then washed three times with PBS, then lysed with 100 μl of lysis buffer (Promega) containing 1% Triton X-100 and 2 mM DTT.
Then a 15 μl sample of the lysate is taken to measure the luciferase with the Promega luciferin kit and 15 other μl to calculate the quantity of proteins in the lysate using the Bradford Test. The relative luciferase units (RLU) are reported in mg of proteins.

For experiment [3], the system named is 3T3 cells. The experiment is described as above. The class given is cell-based, mouse. The note with it: for RLU value relative to peptide SEQ ID NO: 41: 3T3 cells; for luciferase expression RLU: peptide and plasmid pCMVLUC complexed at 1.6 nmoles/μg. The method, then:
Technique: The plasmid pCMVLUC (carrying the gene for luciferase) provided by Qiagen is used according to their instructions. 3T3 cells are sown the night before in 24-well plates (8×10^4 cells/well) in the complete culture medium.
The peptides and the plasmid are complexed in a ratio of 1.6 nmoles/μg in 50 μl of NaCl 0.15M for 20 minutes at laboratory temperature. The cells are then washed, and the peptide-plasmid complex added to the cells in 0.5 ml of complete medium. After 5 hours of incubation at 37° C., the reaction medium is eliminated, and 1 ml of complete medium is added to the cells. After 24 hours of culture, the cells are then washed 3 times with PBS and lysed with 100 μl of lysis buffer (Promega) containing 1% Triton X-100 and 2 mM DTT for 15 minutes. The luciferase test is done on the cell lysate after centrifugation. The quantity of protein in the lysate is measured using the Bradford Test (Bio-Rad) and calculated according to a curve established with bovine gamma globulins. The luciferase activity is estimated on 15 μl of lysate plus 100 μl of reagent of luciferase containing luciferin (Promega). The relative luciferase units (RLU) are measured in a luminometer (Berthold Systems) and reported in mg of protein.

Experiment [4] concerns cells. The experiment can be described thus: Penetration of biotinylated peptides inside cells (microscopy, S-PO coloration). It counts as cell-based. The note with it: biotinylated peptides 50 to 6 μg/ml, 1-18 hours, revealed with S-PO. The method, then: The cells are cultivated in the presence of the different peptides carrying, on the N-terminal side, biotin in decreasing concentrations (50 to 6 μg/ml) in the culture medium for variable times (1-18 hours).
At the end of the culture, the cells are washed three times with PBS (0.15 M NaCl buffered with 0.01 M potassium phosphate buffer pH 7.4) then fixed 15 minutes in ethanol at −20° C. The penetration of the peptide is evaluated after incubation for 30 minutes with streptavidin conjugated with peroxidase (abbreviated S-PO for streptavidin-peroxidase). Then, the S-PO is eliminated, and the cells are washed. […] With the other peptides, positive colorations, but of variable intensity, were noted.

The subject of experiment [5] is Pseudomonas aeruginosa (ATCC 27853). The experiment can be described thus: microbe, parasite or virus in culture. The class given is cell-based. The note with it: ATCC 27853. Here is the method: (§1) The gram-positive bacterial strains are: Enterococcus faecalis (ATCC 29212), and Staphylococcus aureus (ATCC 25923) and the gram-negative strains are: Escherichia coli (ATCC 25922), Pseudomonas aeruginosa (ATCC 27853) and Salmonella typhimurim (clinical isolate), Salmonella typhiTy2 (WHO). The bacteria are cultured with shaking all night at 37° C., then recultured at a dilution of 1:50 in some fresh Luria-Bertani (LB) medium for 2 hours. The bacterial concentration is adjusted to […], and 50 μl is distributed in 96-well plates with an equal volume of peptides diluted half and half (256-0.5 μg/ml) in LB medium. […] To determine the minimum bactericide concentration, 10 μl from each well is spread on gelose plates in LB medium.
(§2) The results are expressed as the peptide concentration in MBC (μM).

Experiment [6] concerns Staphylococcus aureus (ATCC 25923). The experiment can be described thus: microbe, parasite or virus in culture. The class given is cell-based. The note with it: ATCC 25923. The method, then:
as §1, §2

Experiment [7] deals with Escherichia coli (ATCC 25922). The experiment can be described thus: microbe, parasite or virus in culture. As to conditions: ATCC 25922. It counts as cell-based. Here is the method:
as §1, §2

The test system of experiment [8] is Enterococcus faecalis (ATCC 29212). The experiment can be described thus: microbe, parasite or virus in culture. It counts as cell-based. The note with it: ATCC 29212. The method, then: as §1, §2
Experiment [9] relates to H1299 cells. The experiment can be described thus: Internalization of biotinylated peptide/S-PO complexes. It counts as cell-based, human. The note with it: peptide: S-PO complexes of 4:1, peptide concentration of 1 μg. The method, then:
A biotinylated/S-PO peptide or biotinylated/A-PO complex (A-PO for avidin-peroxidase) is prepared extemporaneously in two ways:
1) either in a peptide: S-PO or A-PO molar ratio of 4:1 (for example, 1.4 μg of peptide with a molecular weight of 3500 to 10 μg of S-PO; the weight of S-PO used varies depending on the peptides since their molecular weights are different).
2) or in a peptide: S-PO or A-PO molar ratio of 25:1 (for example 1.7 μg of peptide with a molecular weight of 3500 to 1 μg of S-PO).
The complexes are prepared by incubating the biotinylated peptide with S-PO or A-PO in PBS in a volume of 5 to 10 μl for 15 minutes at laboratory temperature. They are then diluted in 1 ml of complete culture medium, filtered on a 0.2 micron membrane and incubated with the cells for 4 hours. The cells are then washed three times with PBS.
To study the penetration of the complexes under a microscope, the cells are fixed as before for 15 minutes in ethanol at −20° C., they are washed with PBS, and the activity of the internalized peroxidase is shown by diaminobenzidine in the presence of H2O2. To measure the quantity of peptide/S-PO or A-PO complexes internalized, the cells are trypsinized, transferred into microtubes and counted. They are washed twice by centrifugation, then the residue is suspended in 200 μl of lysis buffer (Tris buffer, 0.1 M, pH8, 0.5% Nonidet). After 15 minutes, the peroxidase contained in the lysis buffer is dosed onto 96-well plates with ortho-dianisidine and H2O2 by comparison with a standard curve for S-PO. The reading is taken at 450 nm. The quantity contained in the different samples is expressed in picograms (pg) per 10^4 cells.
Table 7 below reports the results of evaluating the influence of SEQ ID NO: 1 on the penetration of peptides coupled to SEQ ID NO: 1 into H1299 cells, where
Concentration a: 25 peptides to one molecule of S-PO (1 μg),
Concentration b: 4 peptides to one molecule of S-PO (10 μg).

Experiment [10] has as its system Salmonella typhimurim (clinical isolate). The experiment can be described thus: Antibacterial activity of cationic peptides (MBC). The class given is cell-based. The note with it: S. typhimurium. The method, then:
as §1, §2

Experiment [11] relates to gram-positive and gram-negative bacterial strains. The experiment can be described thus: Antibacterial activity of cationic peptides, summary over strains. The class given is cell-based. The note with it: summary of Table 29. Here is the method:
as §1
However, when peptide HPB13 (SEQ ID NO: 38) is coupled with peptide SEQ ID NO: 24, it enhances its activity by a factor of 50 to 100 (peptide SEQ ID NO: 45). […] None these peptides are active on gram-positive bacteria.

Marks after values point to notes of the source that are not given here. Where no end group is shown, it is not given here. A value given as a limit tells only on which side of the number the result lay.

On to `CC(=O)Oc1ccccc1C(=O)O` [Natural aspirin, aspirin, reference compound], for which, in [1] (100 μg/ml), the inhibition (commonly how much of the control response was suppressed) at 100 µg/mL came to 0%. The inhibition at 200 µg/mL in [1] (200 μg/ml) stood at 3%. Besides, in experiment [1] (500 μg/ml), the inhibition at 500 µg/mL is 6%. The inhibition at 1000 µg/mL in [1] (1000 μg/ml) was 48%.
With “SEQ ID NO: 22: Peptide containing 12 lysines (K) and SEQ ID NO: 6 (KKKKKKKKKKKKTYYSDTVKGRFTRQKYNKRA; Mus musculis x Rattus norvegicus)”, the “luciferase expression RLU” value in experiment [2] is 1.9 10^6/mg of proteins.
On to “SEQ ID NO: 23: Peptide containing 12 lysines (K) and SEQ ID NO: 5 (KKKKKKKKKKKKVKRGLKLRQKYNKRAMDY; Mus musculis x Rattus norvegicus)”, for which the “luciferase expression RLU” value in [2] is given as 11.5 10^6/mg of proteins. Further, in experiment [2] (CHO cells), the “increase of luciferase expression compared with SEQ ID NO: 22” value is listed as 6 times.
On to “SEQ ID NO: 40: SEQ ID NO: 10 (1047) plus 13 N-terminal lysines (KKKKKKKKKKKKKVKRGLKLRHVRPRVTRMDV; listed as Homo sapiens)”, for which, in [3], the “RLU value relative to peptide SEQ ID NO: 41” value worked out at 2.6 times and the “luciferase expression RLU” value is reported as 1.9 × 10^6/mg of protein.
For the molecule “SEQ ID NO: 41: SEQ ID NO: 28 (HBP3)2) plus 13 N-terminal lysines (KKKKKKKKKKKKKSERKKRRRESRKKRRRES; listed as Homo sapiens)”, the “luciferase expression RLU” value in experiment [3] was 0.9 × 10^6/mg of protein.
For the molecule “SEQ ID NO: 42: SEQ ID NO: 39 (HBP10) plus 13 N-terminal lysines (KKKKKKKKKKKKKSRRARRSPRHLGSG; listed as Homo sapiens)”, in experiment [3], the “RLU value relative to peptide SEQ ID NO: 41” value is given as 5.5 times and the “luciferase expression RLU” value is 5 × 10^6/mg of protein.
On to VKRGLKLVKRGLKL [SEQ ID NO: 2], for which the intracellular cytochemical coloration result in [4] is reported as “Faint coloration”. The MBC was over 160 µM in experiment [5]; over 160 µM in experiment [6]; >160* μM in experiment [7]; over 160 µM in experiment [8]; over 160 µM in [10]. For the same molecule, the S-PO internalized in experiment [9] was found to be 84 pg/10^4 cells. In addition, the “bactericide / anti-microbial activity” value in [11] is recorded as “not active”.

(Values after patent US8003595B2, “Amino acid sequences facilitating penetration of a substance of interest into cells and/or cell nuclei” (Cellectis, priority 2000, dated 2011).)
